Measured values reported in ChEMBL document CHEMBL1949529, “Substrate specificity of acetoxy derivatives of coumarins and quinolones towards Calreticulin mediated transacetylation: investigations on antiplatelet function” (Bioorg Med Chem, 2012).
Each block holds one compound with its values, some of them ahead of it. Calls of active or inactive are those of the source. The calls are words filed in the database; no cut-off is given here.

Assays:
[1] = Inhibition of platelet CRTAase assessed as inhibition of platelet aggregation at 50 uM by spectrophotometry
[2] = system: Platelet; assay: (§1) Antiplatelet activity in human platelet rich plasma assessed as inhibition of ADP-induced aggregation compound preincubated for 10 mins before ADP addition by aggregometry method; assay type: functional, cell-free
[3] = as §1; assay type: functional, cell-free
[4] = system: Platelet; assay: Enhancement of nitric oxide production in human platelet rich plasma at 100 uM preincubated for 10 mins before ADP addition by DCFH-DA-based flow cytometry; assay type: functional, cell-free
[5] = system: Rattus norvegicus; assay: Antiplatelet activity in arachidonic acid-induced platelet aggregation po dosed Sprague-Dawley rat blood compound treated for 24 hrs before ADP challenge by aggregometry method; assay type: functional, organism-based
[6] = system: Rattus norvegicus; assay: Inhibition of COX1 activity in TMPD/arachidonic acid-stimulated blood of Sprague-Dawley rat at 160.2 umol/kg, po after 24 hrs by ELISA relative to control; assay type: functional
[7] = system: Rattus norvegicus; assay: Inhibition of LPS-induced tissue factor expression in Sprague-Dawley rat PBMC at 160.2 umol/kg, po for 5 days by ELISA relative to control; assay type: functional
[8] = system: PBMC; assay: Inhibition of LPS-induced iNOS expression in Sprague-Dawley rat PBMC at 160.2 umol/kg, po for 5 days before LPS challenge by Western blot analysis; assay type: functional, organism-based
[9] = system: Rattus norvegicus; assay: Antiplatelet activity in ADP-induced platelet aggregation po dosed Sprague-Dawley rat blood compound treated for 24 hrs before ADP challenge by aggregometry method; assay type: functional, organism-based
[10] = system: Platelet; assay: (§2) Antiplatelet activity in human platelet rich plasma assessed as inhibition of arachidonic acid-induced aggregation preincubated for 10 mins before arachidonic acid challenge by aggregometry method; assay type: functional, cell-free
[11] = as §2; assay type: functional, cell-free
[12] = system: Rattus norvegicus; assay: Inhibition of TxB2 production in arachidonic acid-stimulated blood of Sprague-Dawley rat assessed per mg of protein at 160.2 umol/kg, po, measured after 24 hrs by ELISA (reference value: 85.4 pg/mg of protein); assay type: functional
[13] = system: Rattus norvegicus; assay: Inhibition of ADP-induced platelet aggregation in Sprague-Dawley rat blood at 125.3 umol/kg, po treated for 24 hrs before ADP challenge by aggregometry method; assay type: functional
[14] = system: Rattus norvegicus; assay: Inhibition of arachidonic acid-induced aggregation in Sprague-Dawley rat blood at 50.6 umol/kg, po treated for 24 hrs before arachidonic acid challenge by aggregometry method; assay type: functional

- inhibition [1]: Active
Compound: CC(=O)Oc1ccc2c(C(F)(F)F)cc(=O)[nH]c2c1

- IC50 [3]: 145 µM
- inhibition [1]: Active
- IC50 [9]: 125.3 µmol/kg
- IC50 [11]: 77 µM
Compound: CC(=O)Nc1ccc2c(C)cc(=O)oc2c1
- inhibition [2]: Dose-dependent effect
- Activity [4]: Active
- Activity [5]: Dose-dependent effect
- fold change (FC) [6]: 3.34
- fold change (FC) [7]: 1.93
- inhibition [8]: Active
- Activity [9]: Dose-dependent effect
- inhibition [10]: Dose-dependent effect
- fold change (FC) [12]: 0.39

- inhibition [1]: Active
Compound: CCCCCCCCCCc1c(C)c2cc(OC(C)=O)ccc2[nH]c1=O

- IC50 [11]: 80 µM
Compound: CC(=O)Oc1ccccc1C(=O)O [ASPIRIN]
- inhibition in vivo at 125.3 µmol/kg [13]: 52%
- inhibition in vivo at 50.6 µmol/kg [14]: 55%
- inhibition [6]: Active
- fold change (FC) [7]: 4.95
- inhibition [8]: inactive
- fold change (FC) [12]: 0.42

- inhibition [1]: Active
Compound: CC(=O)Nc1ccc2c(C(F)(F)F)cc(=O)oc2c1

- inhibition [1]: Active
Compound: CCc1c(C)c2ccc(NC(C)=O)cc2oc1=O

- inhibition [1]: Active
Compound: CCCCCCCCc1c(C)c2cc(OC(C)=O)ccc2[nH]c1=O

- inhibition [1]: inactive
Compound: CC(=O)Oc1ccc2c(C)cc(=O)oc2c1C(C)=O

- inhibition [1]: Active
Compound: CC(=O)Nc1ccc2c(C(F)(F)F)cc(=O)[nH]c2c1

- inhibition [1]: Active
Compound: CCc1c(C)c2ccc(NC(C)=O)cc2[nH]c1=O

- inhibition [1]: Active
Compound: CCCCCCc1c(C)c2ccc(NC(C)=O)cc2oc1=O

- inhibition [1]: Active
Compound: CC(=O)Oc1ccc2[nH]c(=O)cc(C(F)(F)F)c2c1

- inhibition [1]: inactive
Compound: CC(=O)Oc1cc2oc(=O)cc(C)c2cc1C(C)=O

- inhibition [1]: Active
Compound: CCCCCCCCCCc1c(C)c2ccc(NC(C)=O)cc2oc1=O

- inhibition [1]: inactive
Compound: CCc1c(C)c2cc(C(C)=O)c(OC(C)=O)cc2oc1=O

- inhibition [1]: inactive
Compound: CCc1c(C)c2ccc(OC(C)=O)c(C(C)=O)c2oc1=O

- inhibition [1]: Active
Compound: CCCCc1c(C)c2cc(OC(C)=O)ccc2[nH]c1=O

- inhibition [1]: Active
Compound: CC(=O)Nc1ccc2c(C)cc(=O)[nH]c2c1
